Like-named read-outs stand apart in the source and are kept apart here.
Legend:
Type in all cases: cell-based
E. coli M50 [1] = experiment: MIC by agar dilution (CLSI) against highly resistant ESBL strain
Procedure: (§1) The results on activity of cefepime and other cephalosporin antibacterial agents in combination with tazobactam against highly resistant ESBL strains are given Table 1. In a typical study, overnight grown bacterial cultures were diluted appropriately and inoculated on the agar media containing doubling dilutions of the antibiotic. Observation for growth or no growth was performed after 16-20 h of incubation at 35±2° C. in ambient air. The overall procedure was performed as per Clinical and Laboratory Standards Institute (CLSI) recommendations. This experimental was followed for Examples 2-4 and 6 below (Table 2-4 and 7).

E. coli B-89 [2] = experiment: as above; conditions: E. coli B-89
Procedure: as §1

E. cloacae M-20 = experiment: as above; conditions: E. cloacae M-20
Procedure: as §1

E. coli 7MP [3] = experiment: as above; conditions: E. coli 7MP
Procedure: as §1

E. coli B123 = experiment: as above; conditions: for Activity (MIC, method of Example 1), Table 7: E. coli B-123; for MIC: Escherichia coli, B123, E. coli B123, read-out: MIC
Procedure: as §1

E. coli M50 [4] = experiment: Quantitative drug diffusion assay (disc, zone of inhibition, CLSI); design: key to Interpretation of zone as per CLSI recommendations: R: Resistant; I: Intermediate; S: Sensitive (Interpretation as per CLSI recommendations, 2010)
Text: (§2) Activity of cefepime in combination with tazobactam and various penicillins in combination with respective ESBL inhibitors was also investigated against highly resistant ESBL strains in quantitative drug diffusion assay performed as per CLSI recommendations (Clinical and Laboratory Standards Institute (CLSI), performance Standards for Antimicrobial Susceptibility Testing, 20th Informational Supplement, M 100-S20, Volume 30, No. 1, 2010).
(§3) In a typical study, overnight grown bacterial cultures after appropriate dilution were seed inoculated in the molten, cooled agar media and plates poured. Antibiotics containing 6 mm diameter discs were place on the top of the agar surface. Zone of inhibition based observation was performed after 16-18 h of incubation at 35±2° C. in ambient air. The overall procedure was performed as per CLSI recommendations (Table 5 and 6). These assays are routinely used in determining possibility of treating a particular infection using antibiotic and/or their combinations. For example, in case of treating an infection caused by E. coli (M138) using Augmentin® [commercially available combination: Amoxicillin (500 mg)+Clavulanic acid (125 mg)], the zone inhibition values need to be in the sensitive (S) range.

E. coli B-89 [5] = experiment: as above; design: key to Interpretation of zone as per CLSI recommendations: R: Resistant; I: Intermediate; S: Sensitive (Interpretation as per CLSI recommendations, 2010)
Text: as §2, §3

E. coli B-123 = experiment: as above; design: key to Interpretation of zone as per CLSI recommendations: R: Resistant; I: Intermediate; S: Sensitive (Interpretation as per CLSI recommendations, 2010)
Text: as §2, §3

E. coli 7MP [6] = experiment: as above; design: key to Interpretation of zone as per CLSI recommendations: R: Resistant; I: Intermediate; S: Sensitive (Interpretation as per CLSI recommendations, 2010)
Text: as §2, §3

E. coli M-138 = experiment: as above; design: key to Interpretation of zone as per CLSI recommendations: R: Resistant; I: Intermediate; S: Sensitive (Interpretation as per CLSI recommendations, 2010)
Text: as §2, §3

E. coli S-112 = experiment: as above; design: key to Interpretation of zone as per CLSI recommendations: R: Resistant; I: Intermediate; S: Sensitive (Interpretation as per CLSI recommendations, 2010)
Text: as §2, §3

[7] = Escherichia coli, 20 h, Tazobactam 0 mcg (antibiotic alone), read-out: MIC
[8] = Escherichia coli, B89, 20 h, Tazobactam 0 mcg (antibiotic alone), read-out: MIC
[9] = Enterobacter cloacae, M20, 20 h, Tazobactam 0 mcg (antibiotic alone), read-out: MIC
[10] = Escherichia coli, 7MP, 20 h, Tazobactam 0 mcg (antibiotic alone), read-out: MIC
[11] = Tazobactam 0 mcg (antibiotic alone)
[12] = ESBL inhibitor 0 mcg (antibiotic alone)
[13] = Table 6, with Tazobactam 10 mcg

With `CO/N=C(\C(=O)N[C@@H]1C(=O)N2C(C(=O)[O-])=C(C[n+]3cccc4c3CCC4)CS[C@H]12)c1csc(N)n1` [Cefpirome] the MIC (E. coli M50 [1]; [7]) was greater than 64 µg/mL, the MIC (E. coli M50 [1]; with Tazobactam 4 mcg) was 2 µg/mL and the MIC (E. coli M50 [1]; with Tazobactam 8 mcg) was 2 µg/mL. It also gave an MIC (E. coli B-89 [2]; with Tazobactam 4 mcg) of 4 µg/mL, an MIC (E. coli B-89 [2]; with Tazobactam 8 mcg) of 2 µg/mL and an MIC (E. coli B-89 [2]; [8]) greater than 64 µg/mL. It also gave an Activity (MIC, method of Example 1), Table 7 (E. cloacae M-20; antibiotic alone) greater than 64 µg/mL, an Activity (MIC, method of Example 1), Table 7 (E. cloacae M-20; with Clavulanic acid 4 mcg) of 16 µg/mL and an Activity (MIC, method of Example 1), Table 7 (E. cloacae M-20; with Clavulanic acid 8 mcg) of 8 µg/mL. It also gave an Activity (MIC, method of Example 1), Table 7 (E. cloacae M-20; with Sulbactam 4 mcg) of 32 µg/mL, an Activity (MIC, method of Example 1), Table 7 (E. cloacae M-20; with Sulbactam 8 mcg) of 16 µg/mL and an Activity (MIC, method of Example 1), Table 7 (E. cloacae M-20; with Tazobactam 4 mcg) of 8 µg/mL. It also gave an MIC (E. cloacae M-20; with Tazobactam 4 mcg) of 8 µg/mL, an MIC (E. cloacae M-20; with Tazobactam 8 mcg) of 4 µg/mL and an Activity (MIC, method of Example 1), Table 7 (E. cloacae M-20; with Tazobactam, (4 mcg)) of 4 µg/mL. It also gave an MIC (E. cloacae M-20; [9]) greater than 64 µg/mL, an Activity (MIC, method of Example 1), Table 7 (E. coli 7MP [3]; antibiotic alone) greater than 64 µg/mL and an Activity (MIC, method of Example 1), Table 7 (E. coli 7MP [3]; with Clavulanic acid 4 mcg) of 16 µg/mL. It also gave an Activity (MIC, method of Example 1), Table 7 (E. coli 7MP [3]; with Clavulanic acid 8 mcg) of 8 µg/mL, an Activity (MIC, method of Example 1), Table 7 (E. coli 7MP [3]; with Sulbactam 4 mcg) of 16 µg/mL and an Activity (MIC, method of Example 1), Table 7 (E. coli 7MP [3]; with Sulbactam 8 mcg) of 16 µg/mL. The Activity (MIC, method of Example 1), Table 7 (E. coli 7MP [3]; with Tazobactam 4 mcg) was 8 µg/mL, the MIC (E. coli 7MP [3]; with Tazobactam 4 mcg) was 8 µg/mL and the MIC (E. coli 7MP [3]; with Tazobactam 8 mcg) was 4 µg/mL. The Activity (MIC, method of Example 1), Table 7 (E. coli 7MP [3]; with Tazobactam, (4 mcg)) was 4 µg/mL, the MIC (E. coli 7MP [3]; [10]) was greater than 64 µg/mL and the Activity (MIC, method of Example 1), Table 7 (E. coli B123; antibiotic alone) was greater than 64 µg/mL. For the same compound, the Activity (MIC, method of Example 1), Table 7 (E. coli B123; with Clavulanic acid 4 mcg) was 16 µg/mL, the Activity (MIC, method of Example 1), Table 7 (E. coli B123; with Clavulanic acid 8 mcg) was 8 µg/mL and the Activity (MIC, method of Example 1), Table 7 (E. coli B123; with Sulbactam 4 mcg) was 8 µg/mL. The Activity (MIC, method of Example 1), Table 7 (E. coli B123; with Sulbactam 8 mcg) was 16 µg/mL, the Activity (MIC, method of Example 1), Table 7 (E. coli B123; with Tazobactam 4 mcg) was 4 µg/mL and the Activity (MIC, method of Example 1), Table 7 (E. coli B123; with Tazobactam, (4 mcg)) was 2 µg/mL. For the same compound, the MIC (E. coli B123; [11]) was greater than 64 µg/mL, the MIC (E. coli B123; with Tazobactam 4 mcg) was 4 µg/mL and the MIC (E. coli B123; with Tazobactam 8 mcg) was 2 µg/mL. The “Zone of Inhibition” value (E. coli M50 [4]; [12]) was “Nil”, the “Interpretation of zone as per CLSI recommendations” value (E. coli M50 [4]; Table 6, ESBL inhibitor 0 mcg) was “(R)” and the “Interpretation of zone as per CLSI recommendations” value (E. coli M50 [4]; [13]) was “(S)”. For the same compound, the “Zone of Inhibition” value (E. coli M50 [4]; with Tazobactam 10 mcg) was 22 mm, the “Zone of Inhibition” value (E. coli B-89 [5]; [12]) was “Nil” and the “Interpretation of zone as per CLSI recommendations” value (E. coli B-89 [5]; Table 6, ESBL inhibitor 0 mcg) was “(R)”. For the same compound, the “Interpretation of zone as per CLSI recommendations” value (E. coli B-89 [5]; [13]) was “(S)”, the “Zone of Inhibition” value (E. coli B-89 [5]; with Tazobactam 10 mcg) was 17.5 mm and the “Zone of Inhibition” value (E. coli B-123; [12]) was 8 mm. For the same compound, the “Interpretation of zone as per CLSI recommendations” value (E. coli B-123; Table 6, ESBL inhibitor 0 mcg) was “(R)”, the “Interpretation of zone as per CLSI recommendations” value (E. coli B-123; [13]) was “(S)” and the “Zone of Inhibition” value (E. coli B-123; with Tazobactam 10 mcg) was 20 mm. The “Zone of Inhibition” value (E. coli 7MP [6]; [12]) was 11 mm, the “Interpretation of zone as per CLSI recommendations” value (E. coli 7MP [6]; Table 6, ESBL inhibitor 0 mcg) was “(R)” and the “Interpretation of zone as per CLSI recommendations” value (E. coli 7MP [6]; [13]) was “(S)”. The “Zone of Inhibition” value (E. coli 7MP [6]; with Tazobactam 10 mcg) was 18.5 mm, the “Zone of Inhibition” value (E. coli M-138; [12]) was “Nil” and the “Interpretation of zone as per CLSI recommendations” value (E. coli M-138; Table 6, ESBL inhibitor 0 mcg) was “(R)”. For the same compound, the “Interpretation of zone as per CLSI recommendations” value (E. coli M-138; [13]) was “(S)”, the “Zone of Inhibition” value (E. coli M-138; with Tazobactam 10 mcg) was 21 mm and the “Zone of Inhibition” value (E. coli S-112; [12]) was 15 mm. For the same compound, the “Interpretation of zone as per CLSI recommendations” value (E. coli S-112; Table 6, ESBL inhibitor 0 mcg) was “(I)”, the “Interpretation of zone as per CLSI recommendations” value (E. coli S-112; [13]) was “(S)” and the “Zone of Inhibition” value (E. coli S-112; with Tazobactam 10 mcg) was 20 mm.
`COCC1=C(C(=O)O)N2C(=O)[C@@H](NC(=O)/C(=N\OC)c3csc(N)n3)[C@H]2SC1` [Cefpodoxime] gave an MIC (E. coli M50 [1]; [7]) greater than 128 µg/mL, an MIC (E. coli M50 [1]; with Tazobactam 4 mcg) greater than 64 µg/mL and an MIC (E. coli M50 [1]; with Tazobactam 8 mcg) greater than 64 µg/mL. For the same compound, the MIC (E. coli B-89 [2]; with Tazobactam 4 mcg) was greater than 64 µg/mL, the MIC (E. coli B-89 [2]; with Tazobactam 8 mcg) was greater than 64 µg/mL and the MIC (E. coli B-89 [2]; [8]) was greater than 128 µg/mL. It also gave an MIC (E. cloacae M-20; with Tazobactam 4 mcg) greater than 64 µg/mL, an MIC (E. cloacae M-20; with Tazobactam 8 mcg) greater than 64 µg/mL and an MIC (E. cloacae M-20; [9]) greater than 128 µg/mL. For the same compound, the MIC (E. coli 7MP [3]; with Tazobactam 4 mcg) was greater than 64 µg/mL, the MIC (E. coli 7MP [3]; with Tazobactam 8 mcg) was greater than 64 µg/mL and the MIC (E. coli 7MP [3]; [10]) was greater than 128 µg/mL. It also gave an MIC (E. coli B123; [11]) greater than 128 µg/mL, an MIC (E. coli B123; with Tazobactam 4 mcg) greater than 64 µg/mL and an MIC (E. coli B123; with Tazobactam 8 mcg) greater than 64 µg/mL.

— patent US20160175318A1, “COMPOSITIONS COMPRISING ANTIBACTERIAL AGENT AND TAZOBACTAM” (WOCKHARDT LIMITED, priority 2013, published 2016)
